Patent publication EP0796843B1, “1,25-dihydroxy-16,22,23-trisdehydro-cholecalciferol derivatives” (F. HOFFMANN-LA ROCHE AG, priority 1996, dated 1997)

Key:
[1] = tested on: HaCaT cell line; test: Inhibition of keratinocyte proliferation (3H-thymidine uptake); type: cell-based, human; settings: HaCaT cells, 3H-thymidine incorporation after 6 days of culture, concentration leading to 50% of control values
[2] = tested on: HL-60 cells; test: Induction of HL-60 cell differentiation (NBT reduction); type: cell-based; settings: 3 days, concentration leading to 50% of maximal differentiation achieved with 100-1000 nM calcitriol, read-out: ED50 (the source's name)
[3] = tested on: Human T-cells; test: Inhibition of γ-interferon release in PHA-stimulated T-cells (ELISA); type: cell-based
[4] = tested on: Human T-cell; test: Inhibition of T-cell proliferation (3H-thymidine, PHA-stimulated); type: cell-based
Experimental: Mononuclear cells were isolated from venous blood of healthy donors by centrifugation of buffy coat leucocytes atop Ficoll-Paque. The lymphocytes (70-80% T-cells) were suspended in RPMI 1640 medium supplemented with 10% FCS and adjusted to 10^6 cells/ml. […] of this cell suspension were seeded into flat-bottom microtiter wells and stimulated with […] of PHA. Immediately after seeding, the test compounds listed below in Table V were added to yield final concentrations of between 1x10^-11 M -1 x 10^-6 M. All tests were run in the quadruplicates.
After 3 and 4 days, ^3H-thymidine (5 Ci/mmol) was added to wells at a concentration of […]. Cells were pulse-labeled for the last 6 hours of the growth period. Cells were then harvested on to a 96 well filter plate using a cell harvester. After drying at […] under vacuum for 20-30 minutes, 20 µl of scintillor were added and the radioactivity bound to the filters was counted. Values are expressed as percent controls (samples without test compounds). The concentration leading to 50% of control values is determined graphically and given as IC50 (inhibiting concentration) in Table V. TABLE V

[5] = Calcium tolerance test in mice (highest tolerated dose, body weight); type: in vivo; settings: daily subcutaneous administration for 4 consecutive days, dose resulting in zero weight gain during 5 day treatment period
Source text: Profound changes in calcium homeostasis strongly affect the weight development of mice.
Mice (25-30 g body weight) received daily subcutaneous administrations of the compound for 4 consecutive days. Body weight was registered just before and at the end of a […] treatment period. The "highest tolerated dose" (HTD) is the dose which results in zero weight gain during this treatment period.

[6] = tested on: Sebaceous cells; test: Inhibition of sebaceous cell proliferation (cell count); settings: adult human sebaceous cells in vitro, amount necessary to inhibit proliferation by 50% vs vehicle control
[7] = human lymphocytes (70-80% T-cells) stimulated with PHA, IFN-g by ELISA on days 3 and 4
[8] = human lymphocytes (70-80% T-cells) stimulated with PHA, 3H-thymidine after 3 and 4 days

Row | SMILES | IC50 [1] [nM] | EC50 [2] [nM] | IC50 [3, 7] [nM] | IC50 [4, 8] [nM] | HTD [5] [µg/kg] | ED50 ([6]; listed as 1a,25-dihydroxy-16,22S,23-triene-cholecalciferol) [nM] | ED50 ([6]; listed as 1a,25-dihydroxy-16,22R,23-triene-cholecalciferol) [nM] | IC50 ([1]; Homo sapiens) [nM] | IC50 ([3]; Homo sapiens, T-cell) [nM] | IC50 ([4]; Homo sapiens, T-cell) [nM] | ED50 [6] [nM]
1 | C=C1/C(=C\C=C2/CCC[C@]3(C)C([C@H](C)C=C=CC(C)(C)O)=CC[C@@H]23)C[C@@H](O)C[C@@H]1O [1,25-Dihydroxy-16,22S,23-triene-cholecalciferol] | 40 | 4.8 | 3 | 6 | 50.0 | 10 | – | – | – | – | –
2 | C=C1/C(=C\C=C2/CCC[C@]3(C)C([C@H](C)C=C=CC(C)(C)O)=CC[C@@H]23)C[C@@H](O)C[C@@H]1O [1,25-Dihydroxy-16,22R,23-triene-cholecalciferol] | 0.01 | 0.22 | 0.05 | 0.55 | 2.5 | – | 1 | – | – | – | –
3 | C=C1/C(=C\C=C2/CCC[C@]3(C)[C@@H]([C@H](C)CCCC(C)(C)O)CC[C@@H]23)C[C@@H](O)C[C@@H]1O [1,25-Dihydroxy-cholecalciferol, reference compound] | – | – | – | – | 0.5 | – | – | 55 | 0.8 | 10 | 50
